Measured values as given in patent publication EP1561465A2, “Methods of use of fluoroquinolone compounds against bacteria” (LG Life Sciences, Ltd., priority 1999, dated 2001).
Values after ≈ are worked out from the molar mass of the structure shown. Values joined by “and” are separate entries in the source; they are usually repeats but may differ in a detail not shown here. Identical values can stand only once. Like-named read-outs stand apart in the source and are kept apart here.

What was measured:
Assay type in all cases: cell-based
Acinetobacter spp. = experiment: MIC by agar dilution (NCCLS), 322 nosocomial Gram negative isolates, Athens 1998; conditions: n = 38 strains; for MIC50 / MIC90: Acinetobacter
Klebsiella pneumoniae = experiment: as above; conditions: n = 56 isolates; for MIC50 / MIC90: Klebsiella pneumoniae
Pseudomonas aeruginosa = experiment: as above; conditions: n = 57 isolates
Proteus mirabilis = experiment: as above; conditions: n = 57 isolates; for MIC50 / MIC90: Proteus mirabilis
Escherichia coli = experiment: as above; conditions: Escherichia coli; n = 57 isolates
Enterobacter spp. = experiment: as above; conditions: n = 57 isolates; for MIC50 / MIC90: Enterobacter; for MIC50: read-out: MIC50; for MIC90: read-out: MIC90
[1] = system: Gram positive anaerobic and facultative anaerobic pathogens; experiment: organism not typed
[2] = system: Gram negative anaerobic pathogens and facultative anaerobic pathogens; experiment: MIC by agar dilution, Brucella HK agar with 5% laked sheep blood, anaerobic reference strains

CC(C)(O/N=C(\C(=O)N[C@@H]1C(=O)N2C(C(=O)[O-])=C(C[n+]3ccccc3)CS[C@H]12)c1csc(N)n1)C(=O)O [Ceftazidime]
MIC50 (Acinetobacter spp.): > 64 µg/mL | MIC90 (Acinetobacter spp.): > 64 µg/mL | MIC50 (Klebsiella pneumoniae): 0.25 µg/mL (≈ 0.457 µM) | MIC90 (Klebsiella pneumoniae): > 64 µg/mL | MIC50 (Pseudomonas aeruginosa): 2 µg/mL (≈ 3.66 µM) | MIC90 (Pseudomonas aeruginosa): > 64 µg/mL | MIC50 (Proteus mirabilis): 0.125 µg/mL (≈ 0.229 µM) | MIC90 (Proteus mirabilis): 8 µg/mL (≈ 14.6 µM) | MIC50 (Escherichia coli): 0.125 µg/mL (≈ 0.229 µM) | MIC90 (Escherichia coli): 0.25 µg/mL (≈ 0.457 µM)

CCN1CCN(C(=O)N[C@@H](C(=O)N[C@@H]2C(=O)N3[C@@H]2SC(C)(C)[C@@H]3C(=O)O)c2ccccc2)C(=O)C1=O [Piperacillin]
MIC50 (Acinetobacter spp.): > 64 µg/mL | MIC90 (Acinetobacter spp.): > 64 µg/mL | MIC50 (Klebsiella pneumoniae): 32 µg/mL (≈ 61.8 µM) | MIC90 (Klebsiella pneumoniae): > 64 µg/mL | MIC50 (Pseudomonas aeruginosa): 8 µg/mL (≈ 15.5 µM) | MIC90 (Pseudomonas aeruginosa): > 64 µg/mL | MIC50 (Enterobacter spp.): 16 µg/mL (≈ 30.9 µM) | MIC90 (Enterobacter spp.): > 64 µg/mL | MIC50 (Proteus mirabilis): 1 µg/mL (≈ 1.93 µM) | MIC90 (Proteus mirabilis): > 64 µg/mL | MIC50 (Escherichia coli): 4 µg/mL (≈ 7.73 µM) | MIC90 (Escherichia coli): 64 µg/mL (≈ 124 µM)

C[C@@H](O)[C@H]1C(=O)N2C(C(=O)O)=C(SCCN=CN)C[C@H]12 [Imipenem]
MIC50 (Acinetobacter spp.): 1 µg/mL (≈ 3.34 µM) | MIC90 (Acinetobacter spp.): 4 µg/mL (≈ 13.4 µM) | MIC Range (Acinetobacter spp.): 0.06 to 16 µg/mL | MIC50 (Klebsiella pneumoniae): 0.25 µg/mL (≈ 0.835 µM) | MIC90 (Klebsiella pneumoniae): 1 µg/mL (≈ 3.34 µM) | MIC Range (Klebsiella pneumoniae): 0.125 to 4 µg/mL | MIC50 (Pseudomonas aeruginosa): 2 µg/mL (≈ 6.68 µM) | MIC90 (Pseudomonas aeruginosa): 32 µg/mL (≈ 107 µM) | MIC50 (Enterobacter spp.): 1 µg/mL (≈ 3.34 µM) | MIC90 (Enterobacter spp.): 2 µg/mL (≈ 6.68 µM) | MIC Range (Enterobacter spp.): 0.25 to 64 µg/mL | MIC [1]: 0.125 µg/mL and 0.25 µg/mL | MIC ([1]; Bifidobacterium adolescentis, ATCC15703): 0.125 µg/mL (≈ 0.418 µM) | MIC ([1]; Bifidobacterium bifidum, JCM1255): 0.125 µg/mL (≈ 0.418 µM) | MIC ([1]; Bifidobacterium breve, ATCC15700): 1 µg/mL (≈ 3.34 µM) | MIC ([1]; Bifidobacterium longum, ATCC15707): 0.25 µg/mL (≈ 0.835 µM) | MIC ([1]; Bifidobacterium pseudolongum, ATCC25526): 0.25 µg/mL (≈ 0.835 µM) | MIC ([1]; Clostridioides difficile): 4 µg/mL (≈ 13.4 µM) | MIC ([1]; Clostridium perfringens, ATCC13124): 0.125 µg/mL (≈ 0.418 µM) | MIC ([1]; Clostridium septicum, ATCC12464): ≤ 0.03 µg/mL | MIC ([1]; Cutibacterium acnes, ATCC11828): 0.125 µg/mL (≈ 0.418 µM) | MIC ([1]; Eggerthella lenta, ATCC25559): 2 µg/mL (≈ 6.68 µM) | MIC ([1]; Finegoldia magna, ATCC29328): 0.25 µg/mL (≈ 0.835 µM) | MIC ([1]; Gemella morbillorum, ATCC27824): ≤ 0.03 µg/mL | MIC ([1]; Lacticaseibacillus casei, JCM1134): 0.5 µg/mL (≈ 1.67 µM) | MIC ([1]; Lactiplantibacillus plantarum, JCM1149): 0.06 µg/mL (≈ 0.2 µM) | MIC ([1]; Lactobacillus acidophilus, JCM1132): 0.125 µg/mL (≈ 0.418 µM) | MIC ([1]; Levilactobacillus brevis, JCM1059): 0.06 µg/mL (≈ 0.2 µM) | MIC ([1]; Ligilactobacillus salivarius, JCM1231): 0.5 µg/mL (≈ 1.67 µM) | MIC ([1]; Limosilactobacillus reuteri, JCM1112): 0.06 µg/mL (≈ 0.2 µM) | MIC ([1]; Limosilactobacillus reuteri, JCM1173): ≤ 0.03 µg/mL | MIC ([1]; Paraclostridium sordellii, ATCC9714): ≤ 0.03 µg/mL | MIC ([1]; Parvimonas micra): 0.125 µg/mL (≈ 0.418 µM) | MIC ([1]; Peptoniphilus asaccharolyticus): 0.125 µg/mL (≈ 0.418 µM) | MIC ([1]; Peptoniphilus indolicus): ≤ 0.03 µg/mL | MIC ([1]; Peptostreptococcus anaerobius, ATCC27337): 0.06 µg/mL (≈ 0.2 µM) | MIC ([1]; Schaalia odontolytica): 0.5 µg/mL (≈ 1.67 µM) | MIC ([1]; Staphylococcus saccharolyticus, ATCC14953): ≤ 0.03 µg/mL | MIC ([1]; Streptococcus constellatus, ATCC27823): 0.25 µg/mL (≈ 0.835 µM) | MIC ([1]; Streptococcus intermedius, ATCC27335): 0.25 µg/mL (≈ 0.835 µM) | MIC ([1]; Thomasclavelia ramosa, ATCC25582): 0.25 µg/mL (≈ 0.835 µM) | MIC50 (Proteus mirabilis): 2 µg/mL (≈ 6.68 µM) | MIC90 (Proteus mirabilis): 4 µg/mL (≈ 13.4 µM) | MIC Range (Proteus mirabilis): 0.125 to 16 µg/mL | MIC ([2]; Bacteroides eggerthii, ATCC27754): 0.125 µg/mL (≈ 0.418 µM) | MIC ([2]; Bacteroides fragilis, ATCC25285, Bacteroides fragilis ATCC25285, read-out: MIC): 0.5 µg/mL (≈ 1.67 µM) | MIC ([2]; Bacteroides fragilis, Bacteroides fragilis GA15562, read-out: MIC): 0.25 µg/mL (≈ 0.835 µM) | MIC ([2]; Bacteroides fragilis, Bacteroides fragilis GA-I0558, read-out: MIC): 1 µg/mL (≈ 3.34 µM) | MIC ([2]; Bacteroides fragilis, Bacteroides fragilis GA-I7955, read-out: MIC): 4 µg/mL (≈ 13.4 µM) | MIC ([2]; Bacteroides fragilis, Bacteroides fragilis GAI10150, read-out: MIC): 2 µg/mL (≈ 6.68 µM) | MIC ([2]; Bacteroides fragilis, Bacteroides fragilis GAI30079, read-out: MIC): 256 µg/mL (≈ 855 µM) | MIC ([2]; Bacteroides fragilis, Bacteroides fragilis GAI30144, read-out: MIC): 256 µg/mL (≈ 855 µM) | MIC ([2]; Bacteroides fragilis, NCTC10581): 0.125 µg/mL (≈ 0.418 µM) | MIC ([2]; Bacteroides ovatus, ATCC8483, Bacteroides ovatus ATCC8483, read-out: MIC): 0.25 µg/mL (≈ 0.835 µM) | MIC ([2]; Bacteroides thetaiotaomicron, ATCC29741, Bacteroides thetaiotaomicron ATCC29741, read-out: MIC): 0.5 µg/mL (≈ 1.67 µM) | MIC ([2]; Bacteroides uniformis, ATCC8492, Bacteroides uniformis ATCC8492, read-out: MIC): 0.5 µg/mL (≈ 1.67 µM) | MIC ([2]; Bilophilla wadsworthia WAL7959, read-out: MIC): 0.25 µg/mL (≈ 0.835 µM) | MIC ([2]; Campylobacter gracilis, JCM8538, Campylobacter gracilis JCM8538, read-out: MIC): 0.25 µg/mL (≈ 0.835 µM) | MIC ([2]; Campylobacter ureolyticus, NCTC10941, Bacteroides ureolyticus NCTC10941, read-out: MIC): 0.25 µg/mL (≈ 0.835 µM) | MIC ([2]; Capnocytophaga ochracea, Capnocytophaga ochracea GAI5586, read-out: MIC): 0.25 µg/mL (≈ 0.835 µM) | MIC ([2]; Desullomonas pigra DSM749, read-out: MIC): 0.06 µg/mL (≈ 0.2 µM) | MIC ([2]; Fusobacterium necrophorum, ATCC25286): 0.125 µg/mL (≈ 0.418 µM) | MIC ([2]; Fusobacterium nucleatum, ATCC25586, Fusobacterium nucleatum ATCC25586, read-out: MIC): 1 µg/mL (≈ 3.34 µM) | MIC ([2]; Fusobacterium varium, ATCC8501, Fusobacterium varium ATCC8501, read-out: MIC): 4 µg/mL (≈ 13.4 µM) | MIC ([2]; Hoylesella oralis, ATCC33269, Prevotella oralis ATCC33269, read-out: MIC): ≤ 0.03 µg/mL | MIC ([2]; Parabacteroides distasonis, ATCC8503, Bacteroides distasonis ATCC8503, read-out: MIC): 1 µg/mL (≈ 3.34 µM) | MIC ([2]; Phocaeicola vulgatus, ATCC8482, Bacteroides vulgatus ATCC8482, read-out: MIC): 1 µg/mL (≈ 3.34 µM) | MIC ([2]; Porphylomonas gingivalis ATCC33277, read-out: MIC): ≤ 0.03 µg/mL | MIC ([2]; Porphyromonas asaccharolytica, ATCC25260, Porphyromonas asaccharolytica ATCC25260, read-out: MIC): ≤ 0.03 µg/mL | MIC ([2]; Prevotella bivia, ATCC29303, Prevotella bivia ATCC29303, read-out: MIC): 0.06 µg/mL (≈ 0.2 µM) | MIC ([2]; Prevotella buccaeATCC33574, read-out: MIC): 0.25 µg/mL (≈ 0.835 µM) | MIC ([2]; Prevotella corporis, Prevotella corporis GAI91000, read-out: MIC): ≤ 0.03 µg/mL | MIC ([2]; Prevotella heparinolytica, ATCC35895): 0.125 µg/mL (≈ 0.418 µM) | MIC ([2]; Prevotella melaninogenica, Prevotella melaninogenica GAI5490, read-out: MIC): ≤ 0.03 µg/mL | MIC ([2]; Segatella oris, ATCC33573, Prevotella oris ATCC33573, read-out: MIC): 0.06 µg/mL (≈ 0.2 µM) | MIC ([2]; Sutterella wadsworthensis, ATCC51579, Sutterella wadsworthensis ATCC51579, read-out: MIC): 2 µg/mL (≈ 6.68 µM) | MIC ([2]; Veillonella dispar, ATCC17748, Veillonella dispar ATCC17748, read-out: MIC): 0.06 µg/mL (≈ 0.2 µM) | MIC ([2]; Veillonella parvula, ATCC10790): 0.125 µg/mL (≈ 0.418 µM)
